Patent publication US20100221345A1, “OSTEOGENIC BIOMATERIAL CONTAINING OSTEOGENESIS PROMOTING SUBSTANCE AND NANOGEL” (NATIONAL UNIVERSITY CORPORATION TOKYO MEDICAL AND, priority 2006, published 2010)

Assays:
[1] = system: MC3T3E1 cells; assay: Cell growth by the MTT method in osteoblast cell line; format: cell-based; settings: PGE2 10 μM, 24 hours, FIG. 5
Experimental: (§1) In order to understand the mechanism at the cellular level of the PGE2-containing CHP nanogel, the osteoblast cell line MC3T3E1 cell culture system was used to analyze the cell differentiation by alkaline phosphatase (ALP) activity and the cell growth by the MTT method.
(§2) MC3T3E1 cells were seeded 5×10^3 cells/well in a 96-well plate and cultured in the presence of […] at 37° C. for 1 day. These cells were supplied with the PGE2-containing CHP solution (PGE2 10 μM) prepared in the same manner as in Example 2 to get the same concentration, then cultured in the presence of […] at 37° C. for 24 hours, then collected by scraping, and dissolved in 0.05 ml of a lysis buffer. The alkaline phosphatase (ALP) activity was measured according to the published protocols. In addition, the MTT method was conducted according to the published protocols.

[2] = system: MC3T3E1 cells; assay: Cell differentiation by alkaline phosphatase (ALP) activity in osteoblast cell line; format: cell-based; settings: PGE2 10 μM, 24 hours, FIG. 5
Experimental: as §1, §2

[3] = system: mouse parietal bone; assay: Osteogenesis in mouse parietal bone with PGE2-containing CHP nanogel (width by 2-D μCT); format: in vivo; settings: 3-week old ICR mouse, local administration onto parietal bone 5 times a week for 4 weeks, PGE2 0.6 μg/ml, FIG. 3
Experimental: PGE2-containing hydrophobized polysaccharide nanogel was administered to a mouse parietal bone to observe osteogenesis.
(§3) The PGE2-containing CHP prepared by the same manner as in Example 2 was locally administrated onto the parietal bone of a 3-week old ICR mouse 5 times a week for 4 weeks. […] of the prepared PGE2-containing CHP solution (PGE2 0.6 μg/ml) was administered for a dose. Evaluation was conducted for 4 groups of physiological saline, PGE2, CHP, PGE2-containing CHP (N=5). After 4 weeks of administration, the mice were sacrificed, and the parietal bones were collected, and the width of the parietal bone was measured by 2-D μCT. In order to study the effect on the bones of a whole body, the amount of cancellous bone of the femur was evaluated.

[4] = system: femur cancellous bone; assay: Effect on bones of the whole body: amount of cancellous bone of the femur; format: in vivo, ICR mouse; settings: same mice, local parietal administration 5 times a week for 4 weeks, FIG. 4
Experimental: as §3

amount of cancellous bone in the femur apart from the administration site [4]: increase
Compound: CCCCC[C@H](O)/C=C/[C@H]1[C@H](O)CC(=O)[C@@H]1C/C=C\CCCC(=O)O [PGE2, Prostaglandin E2]
cellular growth (MTT method) [1]: increase
cellular differentiation (ALP activity) [2]: increase
width of the parietal bone [3]: no change
